Series [1] in a line: Particle size distribution (Cilas 1180) of as-received and jet milled API (Example 8). The class given is physicochemical. As for the experimental part: Compound 2 API ‘as-received’ (Lots #2064-118-8, #2064-146-9, and # BPR-WS 1828-194D(2HCl)—B1-19) were analyzed for PSD on a Cilas 1180 particle size analyzer. Subsequently jet milled API batches B # L0441-20-JM51mmP1, B # L0441-20-JM51mmP2, B # L0441-20-JM51mmP3, and B # L0441-84-JM146mmP1 were also analyzed for PSD Approximately 50 mg Compound 2-2HCl was dispersed into 40 mL 0.2% (w/w) span 80 in n-hexanes (dispersant) and allowed to mix for 60 minutes. API was kept suspended in dispersant via stirring and sonication during test.
A jet milling study was performed on a batch of Compound 2 2HCl with jet mill Fluid Energy Asset #00170 outfitted with a 51 mm collection loop. Batches B # L0441-29-JM51mmP1, B # L0441-29-JM51mmP2, and B # L0441-29-JM51mmP3 were created from ˜10 g of Compound 2 lot # BPR-WS1828-194D(2HCl)-B1-19 subjected to 3 passes. Jet mill settings for grinder nozzle and pusher nozzle as follows: Pass 1 grinder nozzle=60 psi & pusher nozzle=80 psi, Pass 2 and 3 grinder nozzle=50 psi & pusher nozzle=70 psi.
After successfully jet milling on the R&D scale, B # L0441-84-JM146mmP1 was created from Compound 2-2HCl lot # BPR-17-87-B1-21d which was processed with a single pass to confirm GMP scale up conditions in the R&D laboratory by passing 85 g through the GMP jet mill Jet-O-Mizer Asset #01 16 Model 0101 outfitted with 146 mm collection loop using a standard nylon 4×48-inch collection sock inside a PTFE 4×48-inch sock to minimize fines loss. The pressure settings for the grinder and pusher nozzle were: Grinder nozzle 60 psi, Pusher nozzle 70 psi.

Series [2] is described as follows: Plasma pharmacokinetics after single PO or IV administration (Example 5), LC-MS/MS. Particulars: female, Sprague-Dawley, rat, plasma, dosed as 2HCl; for AUC(0-t): AUC0-last (hr*ng/mL) Mean ± StdDev; for Cmax: Cmax (ng/mL) Mean ± StdDev; for Tmax: Tmax (hr) Mean ± StdDev.
Procedure: (§1) The animals used in this study were female Sprague Dawley Rats physiologically normal. At the time of receipt, mice were 200-225 g in weight. […] Ninety-four total animals were observed thereafter. The parenteral administration is performed by tail vein injection.
(§2) Compound 2 was provided in free base form and stored at −20° C., protected from light. Compound 2 was formulated in dosage form immediately prior to use. For oral administration of Compound 2 in ORA-Plus® drinking solution, Compound 2 was suspended in drinking solution ORA-Plus® (Perrigo; Minneapolis, Minn.). First, a mortar and pestle were used to smooth out the Compound 2 powder, then a small amount of ORA-Plus® was added, and next, the mixture was triturated to a thick, smooth paste. The remainder of the ORA-Plus® was added by geometric dilution. The Compound 2 free base and ORA-Plus® mixture was dispensed in a tight, light resistant amber bottle with appropriate labeling. This mixture was shaken well before using, protected from light and kept refrigerated if dosing was delayed. For oral administration of Compound 2 in citric acid buffer with Captisol®, Compound 2 free base powder was dissolved or suspended into 30% Captisol® (Cydex Pharmaceuticals; Lawrence, Kans.) in 60 mM citrate buffer (pH˜4.2) (citric acid and sodium citrate dehydrate (Sigma-Aldrich; St. Louis Mo.)) in sterile water) to each group's working concentration. […] A magnetic stir-bar was used to mix dosing solution, followed by sonication. For intravenous administration, Compound 2 free base powder was dissolved into 15% Captisol® in 5 mM citrate buffer (pH˜4.2) to each group's working concentration. A magnetic stirbar was used to mix dosing solution, followed by sonication. IV dosing solution of Compound 2 free base was filtered with a 0.2 m PVDF filter (Pall Life Sciences; Port Washington, N.Y.) prior to administration.
(§3) Dose levels of Compound 1 were based on the free base, not the salt.
(§4) Animals were randomized using random equilibration of body weights on Day 1 into one of 19 study groups, as shown in Table 23 (Groups 1-19), with 5 animals in each group, except for the 4 animals in Group 19. Body weights were collected Days 1, 2, 3, and/or 4 to accommodate data collection of staggered groups. Gross observations of body weight were noted during the course of the study.
For series [3] the following is noted: female, Sprague Dawley, rat, in vivo, po.
Procedure: as §1, §2, §3, §4
[4] abbreviates: after jet milling, 51 mm collection loop.
The mark [5] stands for this setting: iv, 12 mg/kg, Group 18: 12 mg/kg IV, 0.9% Saline.
Setting [6] is: iv, 24 mg/kg, Group 19: 24 mg/kg IV, 0.9% Saline.
Setting [7] is: po, 24 mg/kg, Group 11: 24 mg/kg PO, ORA-Plus, single dose.
[8] abbreviates: po, 36 mg/kg, Group 12: 36 mg/kg PO, ORA-Plus.
[9] abbreviates: po, 36 mg/kg, Group 15: 36 mg/kg PO, 0.5% Methylcellulose in water.
The mark [10] stands for this setting: po, 48 mg/kg, Group 13: 48 mg/kg PO, ORA-Plus.
The mark [11] stands for this setting: po, 48 mg/kg, Group 16: 48 mg/kg PO, 0.5% Methylcellulose in water.
Setting [12] is: po, 60 mg/kg, Group 14: 60 mg/kg PO, ORA-Plus.
Setting [13] is: po, 60 mg/kg, Group 17: 60 mg/kg PO, 0.5% Methylcellulose in water.

For orientation: AUC(0-t) means the area under the concentration-time curve up to a stated or last time point. One may read the Cmax as the peak of the concentration-time curve. One may read the Tmax as the time from dosing to the highest level.

Like-named read-outs stand apart in the source and are kept apart here.

`CC(C)(C)CNCCn1c(Sc2cc3c(cc2I)OCO3)nc2c(N)ncnc21` [B #132-L0441-20-JM51mmP2]: in series [1] (setting [4]), the “Particle size d10” value was determined as 2.3 μm, the “Particle size d50” value was 5.6 μm, the “Particle size d90” value was 11.7 μm and the Particle size span turned out to be 9.4 μm. Moreover, the “Particle size d90” value in series [1] (as quoted for the batches used in Example 9, listed as B # L0441-20-JM51mmP2) was 11 um.

With `CC(C)NCCCn1c(Sc2cc3c(cc2I)OCO3)nc2c(N)ncnc21` [Compound 1], the AUC(0-t) in series [2] (setting [5]) was found to be 2470 ± 573 ng·h/mL; in series [2] (setting [6]) it was 5500 ± 2800 ng·h/mL; in series [2] (setting [7]) it was 2700 ± 462 ng·h/mL; in series [2] (setting [8]), 3220 ± 870 ng·h/mL; in series [2] (setting [9]), 2850 ± 919 ng·h/mL; in series [2] (setting [10]), 6500 ± 2030 ng·h/mL. Further, the exposure AUC(0-t) in series [2] (setting [11]) came to 6500 ± 1690 ng·h/mL; in series [2] (setting [12]) it was 4870 ± 1420 ng·h/mL; in series [2] (setting [13]), 7320 ± 2440 ng·h/mL. Further, the Cmax in series [2] (setting [5]) came out at 1280 ± 325 ng/mL; in series [2] (setting [6]), 2080 ± 79.3 ng/mL; in series [2] (setting [7]) it was 807 ± 214 ng/mL; in series [2] (setting [8]) it was 853 ± 193 ng/mL; in series [2] (setting [9]), 812 ± 270 ng/mL; in series [2] (setting [10]), 1420 ± 470 ng/mL. For the same compound, the maximum concentration (Cmax) in series [2] (setting [11]) was 1650 ± 271 ng/mL; in series [2] (setting [12]) it was 1120 ± 175 ng/mL; in series [2] (setting [13]), 1760 ± 458 ng/mL. Moreover, the Tmax in series [2] (setting [5]) turned out to be 0.25 h; in series [2] (setting [6]) it was 0.31 ± 0.13 h; in series [2] (setting [7]) it was 2 h; in series [2] (setting [8]), 2 h; in series [2] (setting [9]), 2.2 ± 1.1 h; in series [2] (setting [10]) it was 2.4 ± 0.89 h. The Tmax was 1.4 ± 0.55 h in series [2] (setting [11]), 3 ± 2 h in series [2] (setting [12]) and 1.5 ± 0.71 h in series [2] (setting [13]). Moreover, the “% AUC0-last ORA vs methylcellulose Mean ± StdDev” value came out at 119.11 ± 45.91% in series [3] (36 mg/kg), 111.81 ± 69.18% in series [3] (48 mg/kg) and 70.33 ± 23.05% in series [3] (60 mg/kg). The “% Cmax ORA vs methylcellulose Mean ± StdDev” value turned out to be 118.75 ± 64.56% in series [3] (36 mg/kg), 89.30 ± 37.98% in series [3] (48 mg/kg) and 66.16 ± 17.44% in series [3] (60 mg/kg).

Consider `CC(C)(C)CNCCn1c(Sc2cc3c(cc2I)OCO3)nc2c(N)ncnc21` [B #132-L0441-20-JM51mmP3], for which, in series [1] (setting [4]), the “Particle size d10” value is listed as 2.0 μm, the “Particle size d50” value worked out at 4.8 μm, the “Particle size d90” value was 10.1 μm and the Particle size span came to 8.1 μm.

As for `CC(C)(C)CNCCn1c(Sc2cc3c(cc2I)OCO3)nc2c(N)ncnc21` [B #132-L0441-20-JM51mmP1], in series [1] (setting [4]), the “Particle size d10” value was determined as 3.1 μm, the “Particle size d50” value stood at 7.9 μm, the “Particle size d90” value is on record as 17.3 μm and the Particle size span is listed as 14.2 μm. The “Particle size d90” value in series [1] (as quoted for the batches used in Example 9, listed as B # L0441-20-JM51mmP1) worked out at 17 um.

For the origin of these results see patent US20200069592A1, “HSP90 INHIBITOR ORAL FORMULATIONS AND RELATED METHODS” (Samus Therapeutics, Inc., priority 2017, published 2020).
